# From patent publication US20220380341A1, “INHIBITORS OF HIV-1 NEF FOR THE TREATMENT OF HIV DISEASE” (priority 2018, published 2022)
# Like-named read-outs stand apart in the source and are kept apart here.
# Experiments:
# HIV-1NL4-3 = assay: HIV-1 infectivity assay in TZM-bl reporter cell line (LTR-luciferase, 48 h); type: cell-based; details: Human immunodeficiency virus 1, TZM-bl
# In short: (§1)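 Read-out is luciferase from an integrated HIV-1 LTR reporter in TZM-bl cells, 48 h after HIV-1NL4-3 infection in the presence of 1 μM compound. Scale set by DMSO-treated wild-type-infected cells (0%) and Nef-defective virus (100% Nef-dependent effect). Cell Titer Blue measures cytotoxicity without virus.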
# TZM-bl cell line = type: cell-based; details: human, 1 μM
# In short: as §1
# HIV-1 NefNL4-3 = HIV-1 NefNL4-3 (Human immunodeficiency virus type 1 group M subtype B, UniProt P03406, A33V/T15A/T51N/V11I); assay: Surface plasmon resonance binding to recombinant full-length Nef (NL4-3); details: for RU30/RUNef (extent of binding): response units at 30 μM relative to Nef immobilized on the SPR chip; for Nef NL4-3 Binding, SPR 1:1 or 2-site fitting KD1: 1:1 Langmuir fit where the KD2 cell says '1 to 1 fitting', else 2-site fit
# [1] = 1.0 μM, TZM-bl reporter cell line, Table 4, read-out: % Infectivity Inhibition
# [2] = 48 h, Table 1, TZM-bl cells, 1 μM, 48 h, 100% = Nef-defective HIV-1, read-out: HIV-1 Infectivity % Inhibition Norm. to Δ-Nef @ 1 μM
# [3] = KD, M, Table 4, SPR fit 1:1 Langmuir, KD = koff/kon
# [4] = Table 4, 1:1 Langmuir fit, T = 1/koff
# [5] = KD, M, Table 4, SPR fit 2-step induced fit, KD = koff/kon × koff2/(koff2 + kon2)
# [6] = Nef NL4-3 Binding, SPR 2-state fitting KD, Table 1, 2-step induced-fit model
# [7] = Table 4, 2-step induced fit, T = 1/koff2
# [8] = read-out: Nef NL4-3 Binding, SPR 1:1 or 2-site fitting KD2, Table 1, 2-site fit, second component
compound,measurement,setting,value
"Oc1c(CCc2ccc(F)cc2)c(C2CCN(CC3CCOCC3)CC2)nn1-c1nc2ccccc2[nH]1 [Compound I-806, 1-(1H-1,3-benzodiazol-2-yl)-4-[2-(4-fluorophenyl)ethyl]-3-{1-[(oxan-4-yl)methyl]piperidin-4-yl}-1H-pyrazol-5-ol]",inhibition at 1 µM,HIV-1NL4-3; [1],20.6%
same,inhibition at 1 µM,HIV-1NL4-3; [2],20.6%
same,% Cell Viability,TZM-bl cell line,99.1%
same,Percent Viability @ 1 μM (TZM-bl cells),TZM-bl cell line,99.1%
same,Kd,HIV-1 NefNL4-3,9900 nM
same,Kd,HIV-1 NefNL4-3; [3],9900 nM
same,"T, minutes (residence time)",HIV-1 NefNL4-3; [4],1.79E + 00 minutes
same,RU30/RUNef (extent of binding),HIV-1 NefNL4-3,7.48E- 04
"Oc1c(CCc2ccc(F)cc2)c(CC2CCN(Cc3ccccn3)CC2)nn1-c1nc2ccccc2[nH]1 [Compound I-807, 1-(1H-1,3-benzodiazol-2-yl)-4-[2-(4-fluorophenyl)ethyl]-3-({1-[(pyridin-2-yl)methyl]piperidin-4-yl}methyl)-1H-pyrazol-5-ol]",inhibition at 1 µM,HIV-1NL4-3; [2],40.4%
same,Percent Viability @ 1 μM (TZM-bl cells),TZM-bl cell line,99.0%
same,"Nef NL4-3 Binding, SPR 1:1 or 2-site fitting KD1",HIV-1 NefNL4-3; Table 1,No Interaction
"Oc1c(CCc2ccc(F)cc2)c(CC2CCN(Cc3cccnc3)CC2)nn1-c1nc2ccccc2[nH]1 [Compound I-808, 1-(1H-1,3-benzodiazol-2-yl)-4-[2-(4-fluorophenyl)ethyl]-3-({1-[(pyridin-3-yl)methyl]piperidin-4-yl}methyl)-1H-pyrazol-5-ol]",inhibition at 1 µM,HIV-1NL4-3; [2],12.8%
same,Percent Viability @ 1 μM (TZM-bl cells),TZM-bl cell line,102.6%
same,"Nef NL4-3 Binding, SPR 1:1 or 2-site fitting KD1",HIV-1 NefNL4-3; Table 1,No Interaction
"Oc1c(CCc2ccc(F)cc2)c(CC2CCN(Cc3ccncc3)CC2)nn1-c1nc2ccccc2[nH]1 [Compound I-809, 1-(1H-1,3-benzodiazol-2-yl)-4-[2-(4-fluorophenyl)ethyl]-3-({1-[(pyridin-4-yl)methyl]piperidin-4-yl}methyl)-1H-pyrazol-5-ol]",inhibition at 1 µM,HIV-1NL4-3; [2],14.1%
same,Percent Viability @ 1 μM (TZM-bl cells),TZM-bl cell line,97.9%
same,Kd,HIV-1 NefNL4-3,2740 nM
"Oc1c(CCc2ccc(F)cc2)c(CNCc2ccncc2)nn1-c1nc2ccccc2[nH]1 [Compound I-810, 1-(1H-1,3-benzodiazol-2-yl)-4-[2-(4-fluorophenyl)ethyl]-3-({[(pyridin-4-yl)methyl]amino}methyl)-1H-pyrazol-5-ol]",inhibition at 1 µM,HIV-1NL4-3; [1],42.8%
same,inhibition at 1 µM,HIV-1NL4-3; [2],42.8%
same,% Cell Viability,TZM-bl cell line,100%
same,Percent Viability @ 1 μM (TZM-bl cells),TZM-bl cell line,101.3%
same,Kd,HIV-1 NefNL4-3,70.7 nM
same,Kd,HIV-1 NefNL4-3; [5],3580 nM
same,Kd,HIV-1 NefNL4-3; [6],3580 nM
same,"T, minutes (residence time)",HIV-1 NefNL4-3; [7],5.97E + 00 minutes
same,Kd,HIV-1 NefNL4-3; [8],3190 nM
same,RU30/RUNef (extent of binding),HIV-1 NefNL4-3,3.75E- 03
"Oc1c(CCc2ccc(F)cc2)c(CNCc2cccnc2)nn1-c1nc2ccccc2[nH]1 [Compound I-811, 1-(1H-1,3-benzodiazol-2-yl)-4-[2-(4-fluorophenyl)ethyl]-3-({[(pyridin-3-yl)methyl]amino}methyl)-1H-pyrazol-5-ol]",inhibition at 1 µM,HIV-1NL4-3; [1],8.3%
same,inhibition at 1 µM,HIV-1NL4-3; [2],8.3%
same,% Cell Viability,TZM-bl cell line,100%
same,Percent Viability @ 1 μM (TZM-bl cells),TZM-bl cell line,100.7%
same,Kd,HIV-1 NefNL4-3,559 nM
same,Kd,HIV-1 NefNL4-3; [5],12600 nM
same,Kd,HIV-1 NefNL4-3; [6],12600 nM
same,"T, minutes (residence time)",HIV-1 NefNL4-3; [7],3.83E- 01 minutes
same,Kd,HIV-1 NefNL4-3; [8],2380 nM
same,RU30/RUNef (extent of binding),HIV-1 NefNL4-3,3.57E- 03
"Oc1c(CCC2CCN(c3ncc(F)cn3)CC2)c(C2CC2)nn1-c1nc2cc(Cl)ccc2[nH]1 [Compound I-901, 1-(5-chloro-1H-1,3-benzodiazol-2-yl)-3-cyclopropyl-4-{2-[1-(5-fluoropyrimidin-2-yl)piperidin-4-yl]ethyl}-1H-pyrazol-5-ol]",inhibition at 1 µM,HIV-1NL4-3; [1],14.3%
same,inhibition at 1 µM,HIV-1NL4-3; [2],14.3%
same,% Cell Viability,TZM-bl cell line,100%
same,Percent Viability @ 1 μM (TZM-bl cells),TZM-bl cell line,105.0%
same,Kd,HIV-1 NefNL4-3,481 nM
same,Kd,HIV-1 NefNL4-3; [5],0.0153 nM
same,Kd,HIV-1 NefNL4-3; [6],0.0153 nM
same,"T, minutes (residence time)",HIV-1 NefNL4-3; [7],2.46E + 05 minutes
same,RU30/RUNef (extent of binding),HIV-1 NefNL4-3,2.23E- 03
"COc1cc(N2CCC(CCc3c(C4CC4)nn(-c4nc5cc(Cl)ccc5[nH]4)c3O)CC2)nc(OC)n1 [Compound I-902, 1-(5-chloro-1H-1,3-benzodiazol-2-yl)-3-cyclopropyl-4-{2-[1-(2,6-dimethoxypyrimidin-4-yl)piperidin-4-yl]ethyl}-1H-pyrazol-5-ol]",inhibition at 1 µM,HIV-1NL4-3; [1],13.8%
same,inhibition at 1 µM,HIV-1NL4-3; [2],13.8%
same,% Cell Viability,TZM-bl cell line,100%
same,Percent Viability @ 1 μM (TZM-bl cells),TZM-bl cell line,106.5%
same,Kd,HIV-1 NefNL4-3,6.58 nM
same,Kd,HIV-1 NefNL4-3; [5],0.00367 nM
same,Kd,HIV-1 NefNL4-3; [6],0.00367 nM
same,"T, minutes (residence time)",HIV-1 NefNL4-3; [7],1.46E + 06 minutes
same,RU30/RUNef (extent of binding),HIV-1 NefNL4-3,7.18E- 03
"Oc1c(CCc2ccc(F)cc2)c(C2CCCN(CC(F)(F)F)C2)nn1-c1nc2ccccc2[nH]1 (stereo not drawn) [Compound I-1002, 1-(1H-1,3-benzodiazol-2-yl)-4-[2-(4-fluorophenyl)ethyl]-3-[1-(2,2,2-trifluoroethyl)piperidin-3-yl]-1H-pyrazol-5-ol]",inhibition at 1 µM,HIV-1NL4-3; [2],22.7%
same,Percent Viability @ 1 μM (TZM-bl cells),TZM-bl cell line,96.4%
same,Kd,HIV-1 NefNL4-3; [8],1710 nM
"Oc1c(CCc2ccc(F)cc2)c(C2CCN(CC(F)(F)F)CC2)nn1-c1nc2ccccc2[nH]1 [Compound I-1003, 1-(1H-1,3-benzodiazol-2-yl)-4-[2-(4-fluorophenyl)ethyl]-3-[1-(2,2,2-trifluoroethyl)piperidin-4-yl]-1H-pyrazol-5-ol]",inhibition at 1 µM,HIV-1NL4-3; [2],42.3%
same,Percent Viability @ 1 μM (TZM-bl cells),TZM-bl cell line,100.9%
same,Kd,HIV-1 NefNL4-3,1810 nM
"Oc1c(CCc2ccc(F)cc2)c(CC2CCN(CC(F)(F)F)CC2)nn1-c1nc2ccccc2[nH]1 [Compound I-1004, 1-(1H-1,3-benzodiazol-2-yl)-4-[2-(4-fluorophenyl)ethyl]-3-{[1-(2,2,2-trifluoroethyl)piperidin-4-yl]methyl}-1H-pyrazol-5-ol]",inhibition at 1 µM,HIV-1NL4-3; [1],0%
same,inhibition at 1 µM,HIV-1NL4-3; [2],-12.3%
same,% Cell Viability,TZM-bl cell line,100%
same,Percent Viability @ 1 μM (TZM-bl cells),TZM-bl cell line,101.3%
same,Kd,HIV-1 NefNL4-3,354 nM
same,Kd,HIV-1 NefNL4-3; [3],354 nM
same,"T, minutes (residence time)",HIV-1 NefNL4-3; [4],2.82E + 01 minutes
same,RU30/RUNef (extent of binding),HIV-1 NefNL4-3,2.27E- 03
"Oc1c(CC2CCN(CC(F)(F)F)CC2)c(-c2ccc(C(F)(F)F)cc2)nn1-c1nc2ccccc2[nH]1 [Compound I-1005, 1-(1H-1,3-benzodiazol-2-yl)-4-{[1-(2,2,2-trifluoroethyl)piperidin-4-yl]methyl}-3-[4-(trifluoromethyl)phenyl]-1H-pyrazol-5-ol]",inhibition at 1 µM,HIV-1NL4-3; [1],49.2%
same,inhibition at 1 µM,HIV-1NL4-3; [2],49.2%
same,% Cell Viability,TZM-bl cell line,93.5%
same,Percent Viability @ 1 μM (TZM-bl cells),TZM-bl cell line,93.5%
same,Kd,HIV-1 NefNL4-3,91 nM
same,Kd,HIV-1 NefNL4-3; [3],91 nM
same,"T, minutes (residence time)",HIV-1 NefNL4-3; [4],9.47E + 00 minutes
same,RU30/RUNef (extent of binding),HIV-1 NefNL4-3,1.26E- 03
"Oc1c(CCC2CCN(CC(F)(F)F)CC2)c(-c2ccc(C(F)(F)F)cc2)nn1-c1nc2ccccc2[nH]1 [Compound I-1006, 1-(1H-1,3-benzodiazol-2-yl)-4-{2-[1-(2,2,2-trifluoroethyl)piperidin-4-yl]ethyl}-3-[4-(trifluoromethyl)phenyl]-1H-pyrazol-5-ol]",inhibition at 1 µM,HIV-1NL4-3; [1],83.1%
same,inhibition at 1 µM,HIV-1NL4-3; [2],83.1%
same,% Cell Viability,TZM-bl cell line,85.2%
same,Percent Viability @ 1 μM (TZM-bl cells),TZM-bl cell line,85.2%
same,Kd,HIV-1 NefNL4-3,472 nM
same,Kd,HIV-1 NefNL4-3; [5],1.24 nM
same,Kd,HIV-1 NefNL4-3; [6],1.24 nM
same,"T, minutes (residence time)",HIV-1 NefNL4-3; [7],1.80E + 04 minutes
same,Kd,HIV-1 NefNL4-3; [8],15100 nM
same,RU30/RUNef (extent of binding),HIV-1 NefNL4-3,5.08E- 03
"O=C(O)c1ccc(-c2nn(-c3nc4ccccc4[nH]3)c(O)c2CCc2ccc(F)cc2)cc1 [Compound I-1101, 4-[1-(1H-1,3-benzodiazol-2-yl)-4-[2-(4-fluorophenyl)ethyl]-5-hydroxy-1H-pyrazol-3-yl]benzoic acid]",inhibition at 1 µM,HIV-1NL4-3; [2],-9.9%
same,Percent Viability @ 1 μM (TZM-bl cells),TZM-bl cell line,99.3%
same,Kd,HIV-1 NefNL4-3,376 nM
